For data set [1], the target named is T1, Human TRPV1 expressing CHO cells (Homo sapiens, UniProt Q8NER1).
T1 construct: expressed in transfected cells; host or cells: CHO cells under G-418 selection
Nature of the data set: Screening for TRPV1 antagonist using the 45Calcium uptake assay (inhibition of capsaicin induced cellular uptake of radioactive calcium). Format: cell-based. Conditions: for inhibition at 1 µM: CHO; for inhibition at 1 µM / % inhibition of ^45Ca uptake at 1 μM: test compound 1 μM, capsaicin 250 nM, relative to maximum ^45Ca uptake induced by capsaicin alone; for IC50: inhibition of capsaicin (250 nM) induced ^45Ca uptake.

T1 sequence (Q8NER1 whole entry): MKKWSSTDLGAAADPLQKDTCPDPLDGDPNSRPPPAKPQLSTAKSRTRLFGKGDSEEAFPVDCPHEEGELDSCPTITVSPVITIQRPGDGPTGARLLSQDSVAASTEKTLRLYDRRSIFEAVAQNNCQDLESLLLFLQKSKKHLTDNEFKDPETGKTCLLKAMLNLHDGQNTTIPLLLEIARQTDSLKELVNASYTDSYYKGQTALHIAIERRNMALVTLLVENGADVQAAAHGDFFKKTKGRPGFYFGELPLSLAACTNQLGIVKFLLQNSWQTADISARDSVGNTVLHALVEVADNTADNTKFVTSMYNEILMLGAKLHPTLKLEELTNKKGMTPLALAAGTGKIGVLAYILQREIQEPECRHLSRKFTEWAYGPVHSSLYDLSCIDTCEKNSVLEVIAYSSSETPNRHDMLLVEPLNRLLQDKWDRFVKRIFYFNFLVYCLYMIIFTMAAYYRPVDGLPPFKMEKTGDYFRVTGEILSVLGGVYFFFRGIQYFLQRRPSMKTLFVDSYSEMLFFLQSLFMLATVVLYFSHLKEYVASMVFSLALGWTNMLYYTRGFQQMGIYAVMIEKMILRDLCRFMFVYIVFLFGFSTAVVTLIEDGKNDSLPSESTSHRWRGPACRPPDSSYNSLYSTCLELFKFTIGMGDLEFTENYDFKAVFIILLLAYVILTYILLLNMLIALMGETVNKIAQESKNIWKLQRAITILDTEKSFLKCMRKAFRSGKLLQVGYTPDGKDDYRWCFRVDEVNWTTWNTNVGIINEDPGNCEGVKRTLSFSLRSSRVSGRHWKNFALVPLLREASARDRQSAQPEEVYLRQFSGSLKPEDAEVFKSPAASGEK

Turning to `O=C(Nc1cccc2cnccc12)NC1CC2(CCC2)Oc2c(O)cccc21` (racemic) [Example 61, (±) 1-(3,4-Dihydro-8-hydroxy-spiro[2H-1-benzopyran-2,1′-cyclobutane]-4-yl)-3-(isoquinolin-5-yl)urea], the melting point was 246 to 247 °C. In data set [1], the inhibition at 1 µM was more than 50% and the IC50 came to 775 nM.
Regarding `O=C(NCc1ccncc1)N[C@H]1CC2(CCC2)Oc2ccccc21` [Example 37], in data set [1], the inhibition at 1 µM came to 0%.
Turning to `O=C(NCc1ccc(C(F)(F)F)cc1)N[C@H]1CC2(CCC2)Oc2ccccc21` [Example 38, 1-((S)-3,4-Dihydrospiro[2H-1-benzopyran-2,1′-cyclobutan]-4-yl)-3-(4-trifluoromethylbenzyl)urea], in data set [1], the inhibition at 1 µM worked out at 10.9%.
Same read-out and setting: the same measure for `O=C(NC1CC2(CCC2)Oc2ccccc21)N1CCCCC1` (stereo not drawn) [Example 39, N-3,4-dihydrospiro[chromene-2,1′-cyclobutan]-4-ylpiperidine-1-carboxamide]: 0%.
For `O=C(Nc1cccc2cnccc12)NC1CC2(CCC2)Oc2c(F)cc(F)cc21` (stereo not drawn) [Example 48, 1-(6,8-Difluoro-3,4-dihydro-spiro[2H-1-benzopyran-2,1′-cyclobutane]-4-yl)-3-(isoquinolin-5-yl)urea], in data set [1], the inhibition at 1 µM is more than 50% and the IC50 was determined as 16.1 nM.
Consider `S=C(Nc1cccc2cnccc12)NC1CC2(CCC2)Oc2ccccc21` (stereo not drawn) [Example 80, N′-isoquinolin-5-yl-N-3,3′,4,4′-tetrahydro-2′H-spiro[chromene-2,1′-cyclobutan]-4-ylthiourea(N′-isoquinolin-5-yl-N-3,4-dihydro-2H-spiro[chromene-2,1′-cyclobutan]-4-ylthiourea)], for which the melting point was 187 to 188 °C. Further, in data set [1], the inhibition at 1 µM is more than 50% and the IC50 amounted to 49 nM.
As for `S=C(Nc1cccc2ccncc12)NC1CC2(CCC2)Oc2ccccc21` (stereo not drawn) [Example 83, N′-isoquinolin-8-yl-N-3,3′,4,4′-tetrahydro-2′H-spiro[chromene-2,1′-cyclobutan]-4-ylthiourea (N′-isoquinolin-8-yl-N-3,4-dihydro-2H-spiro[chromene-2,1′-cyclobutan]-4-ylthiourea)], in data set [1], the “% inhibition of ^45Ca uptake at 1 μM” value was less than 50%.
On to “(±) 1-(3,4-Dihydro-6-fluoro-spiro[2H-1-benzopyran-2,1′-cyclobutane]-4-yl)-3-(isoquinolin-5-yl)urea [Example 50]”, for which, in data set [1], the IC50 was found to be 7.8 nM and the “% inhibition of ^45Ca uptake at 1 μM” value is given as more than 50%.
Regarding “(±) 1-(3,4-Dihydro-spiro[2H-1-benzopyran-2,1′-cyclobutane]-4-yl)-3-(6-fluoro-1,3-benzothiazol-2-yl)urea [Example 12]”, the “% inhibition of ^45Ca uptake at 1 μM” value in data set [1] is less than 50%.

(Values after patent US7842703B2, “Substituted benzofused derivatives and their use as vanilloid receptor ligands” (Glenmark Pharmaceuticals S.A., priority 2005, dated 2010).)
